Test results published in PMC7337056, “Structural and biochemical characterization of the pleckstrin homology domain of the RhoGEF P-Rex2 and its regulation by PIP3” (Journal of Structural Biology: X, 2018).
Residue numbers refer to the chain shown, from its start.

Assays:
Format in all cases: binding
P-Rex2 PH domain [1] = biological target: T1, P-Rex2 PH domain (Homo sapiens, UniProt Q70Z35); assay: isothermal titration calorimetry; conditions: 20 mM HEPES pH 8, 150 mM NaCl, 25 °C
T1 construct: gene PREX2; PH domain, residues 219-364 for assays (219-377 for crystal 6BNM); 10xHis-MBP tag removed with TEV; E. coli Rosetta (DE3) pLysS
T1 sequence (Q70Z35 219-364): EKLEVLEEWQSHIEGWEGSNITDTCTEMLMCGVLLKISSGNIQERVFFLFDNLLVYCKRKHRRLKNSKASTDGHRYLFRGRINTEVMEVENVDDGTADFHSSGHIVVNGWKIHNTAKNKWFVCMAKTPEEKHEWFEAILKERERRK

P-Rex1 PH domain [2] = biological target: T2, P-Rex1 PH domain (Homo sapiens, UniProt Q8TCU6, K368A); assay: differential scanning fluorimetry (SYPRO orange); conditions: 50 mM HEPES pH 8, 150 mM NaCl, 2 mM DTT; 1 mM ligand
T2 construct: gene PREX1; PH domain, residues 245-408; 10xHis-MBP tag removed with TEV; E. coli Rosetta (DE3) pLysS

P-Rex1 PH domain [3] = biological target: T3, P-Rex1 PH domain (Homo sapiens, UniProt Q8TCU6, K280A); assay: differential scanning fluorimetry (SYPRO orange); conditions: 50 mM HEPES pH 8, 150 mM NaCl, 2 mM DTT; 1 mM ligand
T3 construct: gene PREX1; PH domain, residues 245-408; 10xHis-MBP tag removed with TEV; E. coli Rosetta (DE3) pLysS

P-Rex2 PH domain [4] = biological target: T4, P-Rex2 PH domain (Homo sapiens, UniProt Q70Z35, K337A); assay: differential scanning fluorimetry (SYPRO orange); conditions: 50 mM HEPES pH 8, 150 mM NaCl, 2 mM DTT; 1 mM ligand
T4 construct: gene PREX2; PH domain, residues 219-364 for assays (219-377 for crystal 6BNM); 10xHis-MBP tag removed with TEV; E. coli Rosetta (DE3) pLysS
T4 sequence (Q70Z35 219-364 K337A): T1 sequence (Q70Z35 219-364) with K119A

P-Rex2 PH domain [5] = biological target: T5, P-Rex2 PH domain (Homo sapiens, UniProt Q70Z35, K254A); assay: differential scanning fluorimetry (SYPRO orange); conditions: 50 mM HEPES pH 8, 150 mM NaCl, 2 mM DTT; 1 mM ligand
T5 construct: gene PREX2; PH domain, residues 219-364 for assays (219-377 for crystal 6BNM); 10xHis-MBP tag removed with TEV; E. coli Rosetta (DE3) pLysS
T5 sequence (Q70Z35 219-364 K254A): T1 sequence (Q70Z35 219-364) with K36A

P-Rex2 PH domain [6] = biological target: T1, P-Rex2 PH domain; assay: differential scanning fluorimetry (SYPRO orange)

T2 sequence (Q8TCU6 245-408 K368A): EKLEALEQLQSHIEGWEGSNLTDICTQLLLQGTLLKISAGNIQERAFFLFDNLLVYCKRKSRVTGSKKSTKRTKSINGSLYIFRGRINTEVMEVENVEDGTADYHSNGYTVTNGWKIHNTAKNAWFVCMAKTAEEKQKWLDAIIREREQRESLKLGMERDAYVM
T3 sequence (Q8TCU6 245-408 K280A): as the sequence (Q8TCU6 245-408 K368A) above, with K36A, A124K counted along it

Question: Which results are given for `O=P(O)(O)OC1[C@H](O)[C@H](OP(=O)(O)O)C(OP(=O)(O)O)[C@H](OP(=O)(O)O)[C@H]1O` (stereo partly drawn) [Ins(1,3,4,5)P4, D-myo-Inositol-1,3,4,5-tetraphosphate]?
Answer: Kd (P-Rex2 PH domain [1]): 240 ± 140 nM; ΔTm at 1 mM (P-Rex1 PH domain [2]): P-Rex1 variants display the same trends in binding deficiency; ΔTm at 1 mM (P-Rex1 PH domain [3]): P-Rex1 variants display the same trends in binding deficiency; ΔTm at 1 mM (P-Rex2 PH domain [4]): mutation of any one of the PIP3-binding residues drastically reduces the temperature shift; ΔTm at 1 mM (P-Rex2 PH domain [5]): mutation of any one of the PIP3-binding residues drastically reduces the temperature shift; ΔTm at 1000 µM (P-Rex2 PH domain [6]): 11 °C
